Assay results taken from patent US10208056B2, “Condensed tricyclic compounds as protein kinase inhibitors” (FUNDACIÓN DEL SECTOR PÚBLICO ESTATAL CENTRO NACIONAL DE …, priority 2015, dated 2019).
Like-named read-outs stand apart in the source and are kept apart here.

Assays:
CDK19/Cyclin C = CDK19/Cyclin C (Homo sapiens (Human), UniProt Q9BWU1); assay: CDK19/Cyclin C binding assay (LanthaScreen Eu-Kinase Binding Assay); details: read-out: CDK19-CYCC IC50
Description: The binding assay relies on the LanthaScreen™ Eu-Kinase Binding Assay (Invitrogen).
Assay conditions were as indicated by the kit manufacturers with the following adaptations: • Assay buffer: 50 mM HEPES, pH 7.5, 1 mM EGTA, 0.01% Brij-35, 10 mM MgCl2 • Assay volume: 20 μl • Incubation time and temperature: 60 min at 25° C. • Cdk19-Cyclin C concentration: 2 nM • Tracer concentration: 20 nM • (Eu)-labelled anti-GST antibody concentration: 2 nM • Tested compound: Serial 1:3 dilutions • Final DMSO concentration in the assay: 1%
(§1) Assays were performed in 384-well plates. The final read out was generated using an EnVision plate reader (Perkin-Elmer).

MDA-MB-231 = assay: In vitro cell proliferation assay (CellTiter-Glo), MDA-MB-231; assay type: cell-based
Description: (§2) The in vitro potency of the compounds was measured by the cell proliferation assay CellTiter-Glo® Luminescent Cell Viability Assay, commercially available from Promega Corp., Madison, Wis. This homogeneous assay method is based on the recombinant expression of Coleoptera luciferase (U.S. Pat. No. 5,583,024; U.S. Pat. No. 5,674,713; U.S. Pat. No. 5,700,670) and determines the number of viable cells in culture based on quantitation of the ATP present, an indicator of metabolically active cells (Crouch et al (1993) J. Immunol. Meth. 160:81-88; U.S. Pat. No. 6,602,677). The CellTiterGlo® Assay was conducted […] it amenable to automated high throughput screening (HTS) (Cree et al (1995) AntiCancer Drugs 6:398-404).
(§3) The homogeneous assay procedure involves adding the single reagent (CellTiter-Glo® Reagent) directly to cells cultured in serum-supplemented medium. Cell washing, removal of medium and multiple pipetting steps are not required. The system detects as few as 15 cells/well in a 96-well format in 10 minutes after adding reagent and mixing.
(§4) The homogeneous “add-mix-measure” format results in cell lysis and generation of a luminescent signal proportional to the amount of ATP present. The amount of ATP is directly proportional to the number of cells present in culture. The CellTiter-Glo® Assay generates a “glow-type” luminescent signal, produced by the luciferase reaction, which has a half-life generally greater than five hours, depending on cell type and medium used. Viable cells are reflected in relative luminescence units (RLU). The substrate, Beetle Luciferin, is oxidatively decarboxylated by recombinant firefly luciferase with concomitant conversion of ATP to AMP and generation of photons. The extended half-life eliminates the need to use reagent injectors and provides flexibility for continuous or batch mode processing of multiple plates. This cell proliferation assay can be used with various multiwell formats, e.g. 96 or 384 well format. Data can be recorded by luminometer or CCD camera imaging device. The luminescence output is presented as relative light units (RLU), measured over time.

Haspin kinase = Haspin kinase (Homo sapiens (Human), UniProt Q8TF76); assay: Haspin kinase assay (ADP-Glo); assay type: biochemical; details: ATP 150 μM
Sequence of Haspin kinase (Q8TF76 484-798): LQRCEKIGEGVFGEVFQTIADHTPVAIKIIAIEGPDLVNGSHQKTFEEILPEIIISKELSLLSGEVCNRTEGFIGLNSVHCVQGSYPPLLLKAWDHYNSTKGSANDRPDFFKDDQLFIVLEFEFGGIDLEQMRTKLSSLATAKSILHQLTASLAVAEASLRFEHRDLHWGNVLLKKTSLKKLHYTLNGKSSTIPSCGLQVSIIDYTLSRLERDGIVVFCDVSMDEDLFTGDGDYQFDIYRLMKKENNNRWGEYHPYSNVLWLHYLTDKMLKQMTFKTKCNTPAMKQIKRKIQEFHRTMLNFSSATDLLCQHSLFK
Description: The kinase assay relies on ADP-Glo^KM biochemical kinase assay (Promega). This is a luminescent kinase assay that measures ADP formed from a kinase reaction. Then ADP is converted into ATP, which is transformed into a light signal by Ultra-Glo™ Luciferase. The luminescent signal positively correlates with kinase activity. The assay measures the intrinsic ATPase activity (in the absence of peptidic substrate as phosphate acceptor).
The enzyme was purchase from Invitrogen (PV5708) as the kinase domain of GST tagged recombinant human proteins.
Assay conditions were as indicated by the kit manufacturers with the following adaptations: • Assay buffer: 15 mM HEPES pH 7.4, 20 mM NaCl, 1 mM EGTA, 0.02% Tween 20, 10 mM MgCl2, 0.1 mg/ml BGG • Assay volume: 20 μl • Incubation time and temperature: 60 min at 30° C. • Haspin concentration: 20 nM • ATP concentration: 150 μM • Tested compound: Serial 1:3 dilutions • Final DMSO concentration in the assay: 1%
Assays were performed in 384-well plates. The final read out was generated using an EnVision plate reader (Perkin-Elmer). Luminescent relative units are normalized against the control activity included for each compound (i.e., 100% Haspin activity, without compound) and the percentage of inhibition is calculated.

SW620 [1] = assay: In vitro cell proliferation assay (CellTiter-Glo), SW620; assay type: cell-based, human
Description: as §2, §3, §4

Molm13 = assay: In vitro cell proliferation assay (CellTiter-Glo), Molm13; assay type: cell-based
Description: as §2, §3, §4

CDK8/Cyclin C = CDK8/Cyclin C (Homo sapiens (Human), UniProt P49336); assay: CDK8/Cyclin C binding assay (LanthaScreen Eu-Kinase Binding Assay); details: binding assay
Sequence of CDK8/Cyclin C (P49336 whole entry): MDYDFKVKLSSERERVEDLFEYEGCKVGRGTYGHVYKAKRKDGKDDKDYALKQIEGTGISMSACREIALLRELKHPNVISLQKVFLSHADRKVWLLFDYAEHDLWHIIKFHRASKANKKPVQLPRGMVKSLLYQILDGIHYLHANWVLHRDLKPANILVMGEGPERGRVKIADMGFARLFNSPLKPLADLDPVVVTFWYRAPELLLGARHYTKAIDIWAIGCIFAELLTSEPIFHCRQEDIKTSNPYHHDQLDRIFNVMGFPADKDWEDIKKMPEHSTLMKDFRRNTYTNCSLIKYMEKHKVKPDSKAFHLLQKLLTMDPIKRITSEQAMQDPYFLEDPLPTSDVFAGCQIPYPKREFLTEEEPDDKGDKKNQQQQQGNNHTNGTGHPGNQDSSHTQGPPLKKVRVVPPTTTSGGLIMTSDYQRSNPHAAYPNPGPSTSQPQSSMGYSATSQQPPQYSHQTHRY
Sequence of CDK8/Cyclin C (P24863 whole entry partner): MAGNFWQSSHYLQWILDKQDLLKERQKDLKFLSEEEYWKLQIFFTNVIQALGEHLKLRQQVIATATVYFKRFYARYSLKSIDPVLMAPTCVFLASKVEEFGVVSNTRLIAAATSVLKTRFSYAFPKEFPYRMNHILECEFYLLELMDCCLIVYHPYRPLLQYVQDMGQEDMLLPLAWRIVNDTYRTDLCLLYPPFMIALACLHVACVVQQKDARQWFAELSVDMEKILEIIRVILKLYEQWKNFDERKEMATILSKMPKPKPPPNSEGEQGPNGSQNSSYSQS
Description: The enzyme has been purchase from Invitrogen (PV4402) as a dimer of full-length His-tagged recombinant human proteins.
as §1

MV4:11 = assay: In vitro cell proliferation assay (CellTiter-Glo), MV4:11; assay type: cell-based
Description: as §2, §3, §4

SW620 [2] = assay: Combination assay, SW620; assay type: cell-based, human; details: SW620, chemotherapeutic alone, read-out: Chemo GI50
Description: The combination index (CI) of combinations of certain example compounds and various chemotherapeutic agents in the CellTitetI-Glo® in vitro cell proliferation assays may be tested. A combination index score is calculated by the Chou and Talalay method (CalcuSyn software, Biosoft). The strength of synergy is scored using the ranking system Chou and Talalay: CI less than 0.8 indicates synergy, CI between 0.8 and 1.2 indicates additivity and CI greater than 1.2 indicates antagonism.
The EC50 values of representative combinations are also calculated. The individually measured EC50 values of the chemotherapeutic agent and the example compounds are compared to the EC50 value of the combination. The cell lines are characterised by tumor type. Combination assays are performed as described in: “Pim 1 kinase inhibitor ETP-45299 suppresses cellular proliferation and synergizes with PI3K inhibition”. Blanco-Aparicio, Carmen; Collazo, Ana Maria Garcia; Oyarzabal, Julen; Leal, Juan F.; Albaran, Maria Isabel; Lima, Francisco Ramos; Pequeno, Belen; Ajenjo, Nuria; Becerra, Mercedes; Alfonso, Patricia; Reymundo, Maria Isabel; Palacios, Irene; Mateos, Genoveva; Quinones, Helena; Corrionero, Ana; Carnero, Amancio; Pevarello, Paolo; Lopez, Ana Rodriguez; Fominaya, Jesus; Pastor, Joaquin; Bischoff, James R. Cancer Letters (Shannon, Ireland) 2011, 300(2), 145-153

intracellular CDK8 = intracellular CDK8 (Homo sapiens (Human), UniProt P49336); assay: Endogenous phosphoSTAT1 inhibition in SW620 cells growing in 10% FBS; assay type: cell-based; details: semiquantitative, read-out: SW620 P-STAT1(S727)
Sequence of intracellular CDK8 (P49336 whole entry): as the sequence (P49336 whole entry) above
Sequence of intracellular CDK8 (P24863 whole entry partner): as the sequence (P24863 whole entry partner) above
Sequence of intracellular CDK8 (Q93074 whole entry partner): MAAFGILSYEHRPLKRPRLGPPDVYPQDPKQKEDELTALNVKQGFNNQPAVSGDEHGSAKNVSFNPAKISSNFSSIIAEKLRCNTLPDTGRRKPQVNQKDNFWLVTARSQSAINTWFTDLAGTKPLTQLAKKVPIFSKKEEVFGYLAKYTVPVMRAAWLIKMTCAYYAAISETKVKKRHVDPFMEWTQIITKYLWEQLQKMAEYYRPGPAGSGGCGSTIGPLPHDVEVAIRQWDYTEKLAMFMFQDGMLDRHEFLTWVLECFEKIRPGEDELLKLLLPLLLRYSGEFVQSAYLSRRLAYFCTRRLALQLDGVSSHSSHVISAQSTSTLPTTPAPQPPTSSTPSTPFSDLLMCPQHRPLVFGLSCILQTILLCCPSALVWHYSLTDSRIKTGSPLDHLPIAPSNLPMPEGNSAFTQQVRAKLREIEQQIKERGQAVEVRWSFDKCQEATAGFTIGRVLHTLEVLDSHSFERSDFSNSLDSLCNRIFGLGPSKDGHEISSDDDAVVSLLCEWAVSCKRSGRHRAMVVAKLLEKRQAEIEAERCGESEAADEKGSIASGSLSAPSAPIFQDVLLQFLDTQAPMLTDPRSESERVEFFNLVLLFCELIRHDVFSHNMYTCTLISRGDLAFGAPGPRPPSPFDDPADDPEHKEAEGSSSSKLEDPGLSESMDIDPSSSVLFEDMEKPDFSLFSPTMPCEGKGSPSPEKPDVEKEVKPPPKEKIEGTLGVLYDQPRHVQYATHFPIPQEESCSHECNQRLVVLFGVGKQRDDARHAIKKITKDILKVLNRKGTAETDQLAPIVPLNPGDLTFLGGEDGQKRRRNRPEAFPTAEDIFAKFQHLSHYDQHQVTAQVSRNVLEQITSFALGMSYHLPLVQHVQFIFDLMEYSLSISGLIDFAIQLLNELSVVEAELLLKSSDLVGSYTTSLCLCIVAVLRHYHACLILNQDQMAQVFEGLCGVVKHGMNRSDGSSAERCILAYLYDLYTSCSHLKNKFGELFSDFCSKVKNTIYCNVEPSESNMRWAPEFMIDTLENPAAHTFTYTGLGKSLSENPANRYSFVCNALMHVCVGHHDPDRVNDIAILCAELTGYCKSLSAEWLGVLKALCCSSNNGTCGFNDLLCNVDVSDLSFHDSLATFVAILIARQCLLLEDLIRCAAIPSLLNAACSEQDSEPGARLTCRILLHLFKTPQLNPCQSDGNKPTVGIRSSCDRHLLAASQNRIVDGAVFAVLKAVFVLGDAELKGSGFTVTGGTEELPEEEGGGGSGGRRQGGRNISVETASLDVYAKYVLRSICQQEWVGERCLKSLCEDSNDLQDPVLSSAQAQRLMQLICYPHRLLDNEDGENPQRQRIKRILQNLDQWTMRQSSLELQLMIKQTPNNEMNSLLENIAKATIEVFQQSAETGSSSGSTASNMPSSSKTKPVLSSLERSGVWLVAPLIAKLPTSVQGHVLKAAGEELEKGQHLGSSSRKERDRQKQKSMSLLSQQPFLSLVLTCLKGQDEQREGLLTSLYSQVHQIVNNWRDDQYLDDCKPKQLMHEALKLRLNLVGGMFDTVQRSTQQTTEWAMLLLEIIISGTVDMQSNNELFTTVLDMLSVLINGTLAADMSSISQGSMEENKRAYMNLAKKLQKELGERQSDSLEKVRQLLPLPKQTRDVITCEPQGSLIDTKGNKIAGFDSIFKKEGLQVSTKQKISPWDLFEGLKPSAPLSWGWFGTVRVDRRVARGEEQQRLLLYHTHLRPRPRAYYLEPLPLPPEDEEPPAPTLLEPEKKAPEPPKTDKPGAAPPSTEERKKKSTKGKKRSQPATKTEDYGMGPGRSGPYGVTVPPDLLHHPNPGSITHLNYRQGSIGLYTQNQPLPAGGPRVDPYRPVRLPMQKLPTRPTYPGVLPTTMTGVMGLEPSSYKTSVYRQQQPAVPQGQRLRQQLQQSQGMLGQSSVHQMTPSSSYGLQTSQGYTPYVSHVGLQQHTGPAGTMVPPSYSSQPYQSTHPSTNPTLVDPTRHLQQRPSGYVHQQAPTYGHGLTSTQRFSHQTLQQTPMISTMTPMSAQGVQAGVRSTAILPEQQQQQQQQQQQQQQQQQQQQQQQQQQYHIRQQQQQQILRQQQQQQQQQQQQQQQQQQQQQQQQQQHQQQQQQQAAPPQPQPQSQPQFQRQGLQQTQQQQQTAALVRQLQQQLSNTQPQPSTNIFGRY
Description: Endogenous phosphoSTAT1 inhibition can be screened in cells growing in 10% FBS. Cells are plated as described before and treated for 8 h with compounds as described before. Then cells are lysated and phospho STAT1 is evaluated as described before. The percentage of phosphorylated STAT1 vs total STAT1 in cells treated with DMSO is taken as hundred percent of phosphorylation. The percentage of STAT1 phosphorylation is finally plotted against concentration for each compound and EC50s for intracellular CDK8 inhibition are calculated using ActivityBase from IDBS.

[3] = Homo sapiens, MDA-MB-231, growth inhibition, semiquantitative, read-out: GI50 MDA-MB-231
[4] = Homo sapiens, MV4-11, growth inhibition, semiquantitative, read-out: GI50 MV4:11
[5] = Homo sapiens, SW-620, growth inhibition, semiquantitative, read-out: GI50 SW620
[6] = Homo sapiens, MOLM-13, growth inhibition, semiquantitative, read-out: GI50 Molm13

Sequence of CDK19/Cyclin C (Q9BWU1 whole entry): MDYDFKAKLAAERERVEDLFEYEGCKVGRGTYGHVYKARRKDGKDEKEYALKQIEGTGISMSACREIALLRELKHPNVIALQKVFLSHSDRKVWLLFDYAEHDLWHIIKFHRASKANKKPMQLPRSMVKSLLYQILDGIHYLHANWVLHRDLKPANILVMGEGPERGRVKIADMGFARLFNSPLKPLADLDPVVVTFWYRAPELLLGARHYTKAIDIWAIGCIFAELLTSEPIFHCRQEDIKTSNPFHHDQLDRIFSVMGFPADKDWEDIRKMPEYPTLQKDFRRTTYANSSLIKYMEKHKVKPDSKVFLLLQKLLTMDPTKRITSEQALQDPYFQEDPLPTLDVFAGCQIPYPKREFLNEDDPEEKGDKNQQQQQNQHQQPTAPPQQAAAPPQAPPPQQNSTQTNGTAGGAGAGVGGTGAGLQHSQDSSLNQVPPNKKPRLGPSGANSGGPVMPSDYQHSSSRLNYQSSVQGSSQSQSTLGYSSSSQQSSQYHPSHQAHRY
Sequence of CDK19/Cyclin C (P24863 whole entry partner): as the sequence (P24863 whole entry partner) above

IC50 (CDK19/Cyclin C) [nM]	IC50 (Haspin kinase) [nM]	IC50 (CDK8/Cyclin C) [nM]	GI50 (MDA-MB-231; [3]) [nM]	GI50 (MV4:11; [4]) [nM]	GI50 (SW620 [1]; [5]) [nM]	GI50 (Molm13; [6]) [nM]	SMILES	further results
1.41	95.2	0.407					CCn1c(C(N)=O)cc2c1-c1ccncc1O[C@H]2C1CCCCC1 (single isomer, unassigned) [Example 89]	GI50 (MDA-MB-231; growth inhibition, semiquantitative, read-out: GI50 MDA-MB-231): 10000 to 100000 nM; GI50 (SW620 [1]; growth inhibition, semiquantitative, read-out: GI50 SW620): 10000 to 100000 nM; GI50 (Molm13; growth inhibition, semiquantitative, read-out: GI50 Molm13): < 1000 nM; GI50 (MV4:11; growth inhibition, semiquantitative, read-out: GI50 MV4:11): < 1000 nM
							COc1ccc(S(=O)(=O)Nc2cccnc2Nc2ccc(O)cc2)cc1 [ABT-751, reference compound]	GI50 (SW620 [2]; Homo sapiens, SW-620): 500 nM
11.9	38.1	2.59	10000 to 100000	1000 to 10000			CC1(C)Oc2cnccc2-c2[nH]c(C(N)=O)cc21 [Example 1]	
1.41	15.9	1.96	1000 to 10000	< 1000	10000 to 100000	< 1000	NC(=O)c1cc2c([nH]1)-c1ccncc1OC21CCC1 [Example 15]	EC50 (intracellular CDK8): < 500 nM
1.41	31.8	2.1		< 1000			CC1(C)Oc2cncc(Cl)c2-c2[nH]c(C(N)=O)cc21 [Example 34]	
70.5	146	39.3					CC1(C)Oc2cnccc2-c2[nH]c(C(N)=O)c(C3=CCOCC3)c21 [Example 55]	
86.6	683	78.5					CC1(C)Oc2cnccc2-c2[nH]c(C(=O)O)c(C3=CCOCC3)c21 [Example 56]	
47.3		1.41			< 1000		NC(=O)c1cc2c([nH]1)-c1ccncc1OC2C1CCCCC1 (stereo not drawn) [Example 57]	
25.5	247	14.4					CC1Oc2cnccc2-c2[nH]c(C(N)=O)cc21 (stereo not drawn) [Example 58]	
229	3960	55.4					COc1ccccc1-c1c(C(N)=O)[nH]c2c1C(C)(C)Oc1cnccc1-2 [Example 63]	
10000	933	10000					CC1(C)Oc2cnccc2-c2[nH]c(C(N)=O)c(-c3ccc4[nH]ncc4c3)c21 [Example 65]	
1.41	27.6	0.466					Cn1c(C(N)=O)cc2c1-c1ccncc1OC21CCC1 [Example 67]	
16.7	233	14.4					CCn1c(C(N)=O)c(-c2ccccc2C(F)(F)F)c2c1-c1ccncc1OC2(C)C [Example 75]	
0.827	24.2	0.262	1000 to 10000	< 1000	1000 to 10000	< 1000	NC(=O)c1cc2c(n1CCF)-c1ccncc1OC21CCC1 [Example 76]	EC50 (intracellular CDK8): < 500 nM
0.77		0.314	1000 to 10000	< 1000	1000 to 10000	< 1000	CCn1c(C(N)=O)cc2c1-c1ccncc1OC21CCCCC1 [Example 80]	EC50 (intracellular CDK8): < 500 nM
6.1	138	3.83	1000 to 10000	< 1000	1000 to 10000	< 1000	Cn1c(C(N)=O)cc2c1-c1ccncc1OC21CCOCC1 [Example 81]	
1.41	9.8	0.278	1000 to 10000	< 1000	1000 to 10000	< 1000	Cn1c(C(N)=O)cc2c1-c1ccncc1OC21CCCCC1 [Example 83]	EC50 (intracellular CDK8): < 500 nM
20.9	136	14.2	10000 to 100000	1000 to 10000	10000 to 100000	10000 to 100000	COCCn1c(C(N)=O)cc2c1-c1ccncc1OC21CCOCC1 [Example 87]	
	106	13.9	10000 to 100000	< 1000	10000 to 100000	1000 to 10000	CCn1c(C(N)=O)c(-c2cccc(OC)c2)c2c1-c1ccncc1OC2(C)C [Example 88]	
							O=C1[O][Pt]2([NH][C@@H]3CCCC[C@H]3[NH]2)[O]C1=O [Oxaliplatin, oxaliplatin, reference compound]	GI50 (SW620 [2]): 5000 nM

SMILES	IC50 (CDK19/Cyclin C) [nM]	IC50 (Haspin kinase) [nM]	IC50 (CDK8/Cyclin C) [nM]	GI50 (MDA-MB-231; [3]) [nM]	GI50 (MV4:11; [4]) [nM]	GI50 (SW620 [1]; [5]) [nM]	GI50 (Molm13; [6]) [nM]	further results
NC(=O)c1cc2c([nH]1)-c1ccncc1OC21CCN(CC(F)(F)F)CC1 [Example 18]	40.5	344	20.2	10000 to 100000	1000 to 10000	10000 to 100000	1000 to 10000	
Cn1c(C(N)=O)cc2c1-c1ccncc1OC2(C)C [Example 22]	1.41	87.4	1.98					GI50 (MDA-MB-231; Homo sapiens, MDA-MB-231, read-out: GI50 MDA-MB-231): 1000 to 10000 nM; GI50 (SW620 [1]; Homo sapiens, SW-620, read-out: GI50 SW620): 10000 to 100000 nM; GI50 (Molm13; Homo sapiens, MOLM-13, read-out: GI50 Molm13): 1000 to 10000 nM; GI50 (MV4:11; Homo sapiens, MV4-11, read-out: GI50 MV4:11): < 1000 nM
NC(=O)c1cc2c([nH]1)-c1ccncc1OC21CCN(CCc2ccccc2)CC1 [Example 46]	585	81.3	445	1000 to 10000	< 1000	1000 to 10000	< 1000	
